Structures are written as SMILES.

For the first assay, the target named is T1, Full-length KDM5B enzyme (Homo sapiens, UniProt Q9UGL1).
T1 construct: recombinant protein from baculovirus-transfected Sf21 cells: full-length KDM5B; MW=176.825 kDa; host or cells: baculovirus-transfected Sf21 insect cells
T1 sequence (Q9UGL1 whole entry): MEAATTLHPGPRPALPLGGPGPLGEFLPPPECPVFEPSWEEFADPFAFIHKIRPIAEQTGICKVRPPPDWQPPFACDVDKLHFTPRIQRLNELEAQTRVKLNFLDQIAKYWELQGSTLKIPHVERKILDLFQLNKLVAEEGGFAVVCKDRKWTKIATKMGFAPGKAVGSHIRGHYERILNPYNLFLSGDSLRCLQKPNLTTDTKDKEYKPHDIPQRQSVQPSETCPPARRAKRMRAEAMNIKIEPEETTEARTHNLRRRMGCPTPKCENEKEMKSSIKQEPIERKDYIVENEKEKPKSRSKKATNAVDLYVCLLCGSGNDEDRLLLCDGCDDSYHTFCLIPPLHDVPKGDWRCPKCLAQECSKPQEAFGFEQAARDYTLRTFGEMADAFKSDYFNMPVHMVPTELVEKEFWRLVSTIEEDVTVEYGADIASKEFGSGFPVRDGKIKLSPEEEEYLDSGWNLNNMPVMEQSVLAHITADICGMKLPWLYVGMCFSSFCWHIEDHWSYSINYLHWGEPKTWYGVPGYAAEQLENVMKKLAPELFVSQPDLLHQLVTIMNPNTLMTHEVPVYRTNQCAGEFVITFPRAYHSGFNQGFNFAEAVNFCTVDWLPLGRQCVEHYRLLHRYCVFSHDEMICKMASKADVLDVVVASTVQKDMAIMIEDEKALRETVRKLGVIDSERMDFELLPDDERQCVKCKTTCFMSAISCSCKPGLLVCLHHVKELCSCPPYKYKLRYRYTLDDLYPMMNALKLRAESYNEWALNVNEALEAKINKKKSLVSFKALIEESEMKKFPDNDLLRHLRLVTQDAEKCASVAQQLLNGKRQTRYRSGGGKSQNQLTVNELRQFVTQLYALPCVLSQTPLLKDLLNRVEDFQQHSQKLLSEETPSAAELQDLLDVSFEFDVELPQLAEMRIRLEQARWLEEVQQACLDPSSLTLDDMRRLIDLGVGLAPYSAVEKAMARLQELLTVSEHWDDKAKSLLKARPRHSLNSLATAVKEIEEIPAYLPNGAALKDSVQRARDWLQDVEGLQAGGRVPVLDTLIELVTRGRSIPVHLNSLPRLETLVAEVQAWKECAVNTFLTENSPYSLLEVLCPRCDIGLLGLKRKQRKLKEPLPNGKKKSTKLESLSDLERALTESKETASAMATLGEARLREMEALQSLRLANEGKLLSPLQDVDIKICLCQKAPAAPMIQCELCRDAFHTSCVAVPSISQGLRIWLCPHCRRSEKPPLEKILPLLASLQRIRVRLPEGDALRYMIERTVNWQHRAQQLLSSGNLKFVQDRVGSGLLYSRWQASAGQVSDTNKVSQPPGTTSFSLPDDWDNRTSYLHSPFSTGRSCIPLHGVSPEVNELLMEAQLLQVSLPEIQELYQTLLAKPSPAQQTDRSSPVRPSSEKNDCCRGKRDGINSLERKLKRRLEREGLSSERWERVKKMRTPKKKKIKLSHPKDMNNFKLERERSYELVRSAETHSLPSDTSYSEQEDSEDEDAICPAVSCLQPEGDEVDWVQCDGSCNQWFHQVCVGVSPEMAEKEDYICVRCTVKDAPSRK
The experiment in a line: KDM5B TR-FRET Enzyme Activity Assay (LANCE). It is filed as biochemical.
Conditions: not given
The method, then: KDM5B TR-FRET Enzyme Activity Assay
KDM5B enzymatic activity was determined with the LANCE (Lanthanide Chelate Excite) TR-FRET (Time-resolved fluorescence resonance energy transfer) assay. […] Following a 30 minutes compound and enzyme incubation in a humidified chamber, each reaction was initiated by the addition of 1 μL 1× assay buffer containing […] biotinylated H3K4Me3 peptide, and 500 nM α-ketoglutarate. The final reaction in each well of 5 μL consists of 5 nM KDM5B, 500 nM biotinylated-peptide, and 500 nM α-ketoglutarate. De-methylation reactions were allowed to proceed for 60 minutes. Reactions were immediately quenched by the addition of 5 μL of 2× Lance Detection Buffer (PerkinElmer) with 0.5 mM EDTA and 2 nM of Eu-anti-H3K4Mel-2 antibody, and 30 nM of Streptavidin-conjugated Dylight 650 detection reagents. After 60 minutes incubation with detection reagents, reaction plates were read on a PerkinElmer EnVision plate reader using standard TR-FRET protocol. Briefly, excitation of donor molecules (Eu-chelate-anti-H3K4Me1-2-antibody) with a laser light source at 337 nm produces energy that can be transferred to Dylight-650 acceptor molecules if this donor:acceptor pair is within close proximity.
Fluorescence intensity at both 665 nm (acceptor) and 615 nm (donor) are measured and a TR-FRET ratio calculated for each well (acceptor intensity/donor intensity). IC50 values were determined by 4 parameter robust fit of TR-FRET ratio values vs. (Log 10) compound concentrations.
The term IC50 denotes the concentration needed to halve the response being measured. `Cc1nc2[nH]c(-c3ccc(Cl)cc3)cc(=O)n2n1` [Example 7-51, 5-(4-chlorophenyl)-2-methyl[1,2,4]triazolo[1,5-a]pyrimidin-7(4H)-one] returned an IC50 of 14.2 µM.

The molecule `Cc1nc2[nH]c(C3CCCC3)cc(=O)n2n1` [Example 7-61, 5-cyclopentyl-2-methyl[1,2,4]triazolo[1,5-a]pyrimidin-7(4H)-one] showed an IC50 greater than 100 µM.

Molecule `Cc1nc2[nH]c(C(C)(C)C)cc(=O)n2n1` [Example 7-38, 5-tert-butyl-2-methyl[1,2,4]triazolo[1,5-a]pyrimidin-7(4H)-one] yielded an IC50 greater than 100 µM.

The molecule `Cc1nc2[nH]c(C3CCCCC3)cc(=O)n2n1` [Example 7-59, 5-cyclohexyl-2-methyl[1,2,4]triazolo[1,5-a]pyrimidin-7(4H)-one] had an IC50 greater than 100 µM.

With `CCCCc1cc(=O)n2nc(C)nc2[nH]1` [Example 7-49, 5-butyl-2-methyl[1,2,4]triazolo[1,5-a]pyrimidin-7(4H)-one], the IC50 was greater than 100 µM.

As for `Cc1[nH]c2nc(-c3ccccn3)nn2c(=O)c1C(C)C` [Example 7-28, 5-methyl-6-(1-methylethyl)-2-pyridin-2-yl[1,2,4]triazolo[1,5-a]pyrimidin-7(4H)-one], the IC50 is greater than 100 µM.

The molecule `Cc1[nH]c2nc(N3CCOCC3)nn2c(=O)c1C(C)C` [Example 7-30, 5-methyl-6-(1-methylethyl)-2-morpholin-4-yl[1,2,4]triazolo[1,5-a]pyrimidin-7(4H)-one] returned an IC50 greater than 100 µM.

As to `Cc1nc2[nH]c(CC(C)(C)C)cc(=O)n2n1` [Example 7-57, 5-(2,2-dimethylpropyl)-2-methyl[1,2,4]triazolo[1,5-a]pyrimidin-7(4H)-one], the IC50 was greater than 100 µM.

`Cc1[nH]c2nc(C(C)C)nn2c(=O)c1C(C)C` [Example 7-29, 5-methyl-2,6-bis(1-methylethyl)[1,2,4]triazolo[1,5-a]pyrimidin-7(4H)-one]: it took 35.4 µM to reach half-maximal inhibition (IC50).

With `Cc1nc2[nH]c(C(C)C)cc(=O)n2n1` [Example 7-6, 2-methyl-5-(1-methylethyl)[1,2,4]triazolo[1,5-a]pyrimidin-7(4H)-one], the half-maximal inhibitory concentration (IC50) is greater than 100 µM.

In turn, `Cc1nc2[nH]c(C3CC3)cc(=O)n2n1` [Example 7-46, 5-cyclopropyl-2-methyl[1,2,4]triazolo[1,5-a]pyrimidin-7(4H)-one] displayed an IC50 greater than 100 µM.

In turn, `Cc1nc2[nH]c(C)c(C3CCCC3)c(=O)n2n1` [Example 7-45, 6-cyclopentyl-2,5-dimethyl[1,2,4]triazolo[1,5-a]pyrimidin-7(4H)-one] displayed an IC50 greater than 100 µM.

`Cc1nc2[nH]c(CC3CCCC3)cc(=O)n2n1` [Example 7-56, 5-(cyclopentylmethyl)-2-methyl[1,2,4]triazolo[1,5-a]pyrimidin-7(4H)-one] registered an IC50 greater than 100 µM.

Staying with this assay, now noted: 5 nM full-length KDM5B, biotinylated H3K4Me3 peptide, 500 nM α-ketoglutarate; ten point titration 100000 nM to 5.08 nM; read-out: IC50.
Regarding `Cc1nc2[nH]c(C)c(F)c(=O)n2n1` [Example 7-50, 6-fluoro-2,5-dimethyl[1,2,4]triazolo[1,5-a]pyrimidin-7(4H)-one], the IC50 worked out at 70.5 µM.

On to `Cc1nc2[nH]c(-c3ccco3)cc(=O)n2n1` [Example 7-44, 5-furan-2-yl-2-methyl[1,2,4]triazolo[1,5-a]pyrimidin-7(4H)-one], for which the IC50 is 33.8 µM.

Take `CCc1c(C)[nH]c2nc(C(=O)OC)nn2c1=O` [Example 7-14, methyl 6-ethyl-5-methyl-7-oxo-4,7-dihydro[1,2,4]triazolo[1,5-a]pyrimidine-2-carboxylate]: the IC50 was determined as 34.9 µM.

Regarding `Cc1[nH]c2nc(C(F)(F)F)nn2c(=O)c1C(C)C` [Example 7-32, 5-methyl-6-(1-methylethyl)-2-(trifluoromethyl)[1,2,4]triazolo[1,5-a]pyrimidin-7(4H)-one], the half-maximal inhibitory concentration (IC50) is 2.07 µM.

Take `Cc1cc(=O)n2nc(-c3ccncc3)nc2[nH]1` [Example 7-10, 5-methyl-2-(pyridin-4-yl)-[1,2,4]triazolo[1,5-a]pyrimidin-7(4H)-one]: the IC50 came to 4.28 µM.

On to `Cc1[nH]c2nc(C3CCC3)nn2c(=O)c1C(C)C` [Example 7-19, 2-cyclobutyl-5-methyl-6-(1-methylethyl)[1,2,4]triazolo[1,5-a]pyrimidin-7(4H)-one], for which the IC50 amounted to 92.7 µM.

For the molecule `COc1c(C(F)(F)F)[nH]c2nc(C)nn2c1=O` [Example 7-42, 6-methoxy-2-methyl-5-(trifluoromethyl)[1,2,4]triazolo[1,5-a]pyrimidin-7(4H)-one], the IC50 worked out at 21.1 µM.

Turning to `Cc1nc2[nH]c(C3CCC3)cc(=O)n2n1` [Example 7-62, 5-cyclobutyl-2-methyl[1,2,4]triazolo[1,5-a]pyrimidin-7(4H)-one], the IC50 worked out at 63.2 µM.

Regarding `Cc1[nH]c2nc(C3CC3)nn2c(=O)c1C(C)C` [Example 7-18, 2-cyclopropyl-5-methyl-6-(1-methylethyl)[1,2,4]triazolo[1,5-a]pyrimidin-7(4H)-one], the IC50 is 48.6 µM.

Regarding `Cc1nc2[nH]c(C(F)(F)F)c(F)c(=O)n2n1` [Example 7-65, 6-fluoro-2-methyl-5-(trifluoromethyl)[1,2,4]triazolo[1,5-a]pyrimidin-7(4H)-one], the IC50 was 28.2 µM.

`Cc1[nH]c2nc(CCCO)nn2c(=O)c1C(C)C` [Example 7-37, 2-(3-hydroxypropyl)-5-methyl-6-(1-methylethyl)[1,2,4]triazolo[1,5-a]pyrimidin-7(4H)-one]: the IC50 was 66.5 µM.

On to `Cc1nc2[nH]c(C3CCCCC3)c(C)c(=O)n2n1` [Example 7-67, 5-cyclohexyl-2,6-dimethyl[1,2,4]triazolo[1,5-a]pyrimidin-7(4H)-one], for which the IC50 worked out at 53.6 µM.

Take `CCc1c(C)[nH]c2nc(N)nn2c1=O` [Example 7-3, 2-amino-6-ethyl-5-methyl-[1,2,4]triazolo[1,5-a]pyrimidin-7(4H)-one]: the IC50 was found to be 22.2 µM.

With `Cc1nc2[nH]c(-c3ccn(C)n3)cc(=O)n2n1` [Example 7-36, 2-methyl-5-(1-methyl-1H-pyrazol-3-yl)[1,2,4]triazolo[1,5-a]pyrimidin-7(4H)-one], the IC50 was 25.4 µM.

Regarding `Cc1nc2[nH]c(C3CCC3)c(C)c(=O)n2n1` [Example 7-68, 5-cyclobutyl-2,6-dimethyl[1,2,4]triazolo[1,5-a]pyrimidin-7(4H)-one], the IC50 worked out at 22.8 µM.

With `CCc1[nH]c2nc(C)nn2c(=O)c1C` [Example 7-47, 5-ethyl-2,6-dimethyl[1,2,4]triazolo[1,5-a]pyrimidin-7(4H)-one], the IC50 turned out to be 28.8 µM.

Take `Cc1nc2[nH]c(-c3cccc(Cl)c3)cc(=O)n2n1` [Example 7-54, 5-(3-chlorophenyl)-2-methyl[1,2,4]triazolo[1,5-a]pyrimidin-7(4H)-one]: the IC50 came to 12.3 µM.

Take `CCCc1cc(=O)n2nc(C)nc2[nH]1` [Example 7-2, 2-methyl-5-propyl[1,2,4]triazolo[1,5-a]pyrimidin-7(4H)-one]: the IC50 came to 97 µM.

In the case of `CCOC(=O)c1[nH]c2nc(C)nn2c(=O)c1Cl` [Example 7-13, ethyl 6-chloro-2-methyl-7-oxo-4,7-dihydro[1,2,4]triazolo[1,5-a]pyrimidine-5-carboxylate], the IC50 turned out to be 2.96 µM.

Regarding `Cc1nc2[nH]c(-c3ccccn3)cc(=O)n2n1` [Example 7-43, 2-methyl-5-pyridin-2-yl[1,2,4]triazolo[1,5-a]pyrimidin-7(4H)-one], the half-maximal inhibitory concentration (IC50) amounted to 23.2 µM.

Regarding `Cc1nc2[nH]c(C(F)(F)F)cc(=O)n2n1` [Example 7-11, 2-methyl-5-(trifluoromethyl)-[1,2,4]triazolo[1,5-a]pyrimidin-7(4H)-one], the IC50 stood at 27.9 µM.

The values are drawn from US20200048259A1, “KDM5 INHIBITORS” (priority 2016, published 2020).
